# Organism: Rattus norvegicus
# Assay: DrugMatrix - Regimen: Daily Repeat
# Format: toxicity, organism-based, Sprague-Dawley
# Parameters: regimen Daily Repeat, gender Male, age 6-8 weeks
# Conditions: in vivo, po, route oral GAVAGE, vehicle .5 % CMC; for ABSOLUTE BASOPHIL / ABSOLUTE EOSINOPHIL / ABSOLUTE LYMPHOCYTE / ABSOLUTE MONOCYTE / ABSOLUTE SEGMENTED NEUTROPHIL / BASOPHIL / EOSINOPHIL / ERYTHROCYTE COUNT / HEMATOCRIT / HEMOGLOBIN / LEUKOCYTE COUNT / LYMPHOCYTE / MEAN CORPUSCULAR HEMOGLOBIN / MEAN CORPUSCULAR HEMOGLOBIN CONCENTRATION / MEAN CORPUSCULAR VOLUME / MONOCYTE / NEUTROPHIL / NUCLEATED RED BLOOD CELLS / PLATELET COUNT: tissue Blood; for ALANINE AMINOTRANSFERASE / ALBUMIN / ALKALINE PHOSPHATASE / ASPARTATE AMINOTRANSFERASE / BLOOD UREA NITROGEN / CARBON DIOXIDE / CHLORIDE / CHOLESTEROL / CREATINE PHOSPHOKINASE / CREATININE / GLUCOSE / LACTATE DEHYDROGENASE / LIPASE / PHOSPHORUS / POTASSIUM / SODIUM / TOTAL BILIRUBIN / TOTAL PROTEIN / URIC ACID: tissue Plasma
# [1] = 30 mg/kg, 72 h, dose level Low, time 3 day
# [2] = 30 mg/kg, 120 h, dose level Low, time 5 day
# [3] = 1200 mg/kg, 72 h, dose level High, time 3 day
# [4] = 1200 mg/kg, 120 h, dose level High, time 5 day
compound,measurement,setting,value
CN(Cc1cc(Br)cc(Br)c1N)C1CCCCC1 [BROMHEXINE],ABSOLUTE BASOPHIL,[1],0 CELLS/uL
same,ABSOLUTE EOSINOPHIL,[1],52.67 CELLS/uL
same,ABSOLUTE LYMPHOCYTE,[1],13749.67 CELLS/uL
same,ABSOLUTE MONOCYTE,[1],46.33 CELLS/uL
same,ABSOLUTE SEGMENTED NEUTROPHIL,[1],484.67 CELLS/uL
same,BASOPHIL,[1],0%
same,EOSINOPHIL,[1],0.33%
same,ERYTHROCYTE COUNT,[1],5.57 x10E6/uL
same,HEMATOCRIT,[1],34.67%
same,HEMOGLOBIN,[1],13.63 G/DL
same,LEUKOCYTE COUNT,[1],14.33 x10E3/uL
same,LYMPHOCYTE,[1],96%
same,MEAN CORPUSCULAR HEMOGLOBIN,[1],24.5 pg
same,MEAN CORPUSCULAR HEMOGLOBIN CONCENTRATION,[1],39.37 G/DL
same,MEAN CORPUSCULAR VOLUME,[1],62.23 fL
same,MONOCYTE,[1],0.33%
same,NEUTROPHIL,[1],3.33%
same,NUCLEATED RED BLOOD CELLS,[1],0.33 /100WBC
same,PLATELET COUNT,[1],1277.67 x10E3/uL
same,ALANINE AMINOTRANSFERASE,[1],49 u/L
same,ALBUMIN,[1],4.13 G/DL
same,ALKALINE PHOSPHATASE,[1],406.33 u/L
same,ASPARTATE AMINOTRANSFERASE,[1],85 u/L
same,BLOOD UREA NITROGEN,[1],15 mg/dL
same,CARBON DIOXIDE,[1],23 mmol/L
same,CHLORIDE,[1],103.67 MEQ/L
same,CHOLESTEROL,[1],65.67 mg/dL
same,CREATINE PHOSPHOKINASE,[1],317.67 u/L
same,CREATININE,[1],0.18 mg/dL
same,GLUCOSE,[1],158 mg/dL
same,LACTATE DEHYDROGENASE,[1],370.33 u/L
same,LIPASE,[1],9 u/L
same,PHOSPHORUS,[1],12.77 mg/dL
same,POTASSIUM,[1],6.95 MEQ/L
same,SODIUM,[1],145.43 MEQ/L
same,TOTAL BILIRUBIN,[1],0.2 mg/dL
same,TOTAL PROTEIN,[1],5.77 G/DL
same,URIC ACID,[1],1.67 mg/dL
same,ABSOLUTE BASOPHIL,[2],0 CELLS/uL
same,ABSOLUTE EOSINOPHIL,[2],128.67 CELLS/uL
same,ABSOLUTE LYMPHOCYTE,[2],16146.33 CELLS/uL
same,ABSOLUTE MONOCYTE,[2],429 CELLS/uL
same,ABSOLUTE SEGMENTED NEUTROPHIL,[2],1529.33 CELLS/uL
same,BASOPHIL,[2],0%
same,EOSINOPHIL,[2],0.67%
same,ERYTHROCYTE COUNT,[2],5.35 x10E6/uL
same,HEMATOCRIT,[2],33.4%
same,HEMOGLOBIN,[2],13.33 G/DL
same,LEUKOCYTE COUNT,[2],18.23 x10E3/uL
same,LYMPHOCYTE,[2],88.67%
same,MEAN CORPUSCULAR HEMOGLOBIN,[2],24.97 pg
same,MEAN CORPUSCULAR HEMOGLOBIN CONCENTRATION,[2],39.9 G/DL
same,MEAN CORPUSCULAR VOLUME,[2],62.5 fL
same,MONOCYTE,[2],2.33%
same,NEUTROPHIL,[2],8.33%
same,NUCLEATED RED BLOOD CELLS,[2],0 /100WBC
same,PLATELET COUNT,[2],1294.67 x10E3/uL
same,ALANINE AMINOTRANSFERASE,[2],51.33 u/L
same,ALBUMIN,[2],4.27 G/DL
same,ALKALINE PHOSPHATASE,[2],334 u/L
same,ASPARTATE AMINOTRANSFERASE,[2],80.67 u/L
same,BLOOD UREA NITROGEN,[2],15.67 mg/dL
same,CARBON DIOXIDE,[2],24.67 mmol/L
same,CHLORIDE,[2],103.67 MEQ/L
same,CHOLESTEROL,[2],75.33 mg/dL
same,CREATINE PHOSPHOKINASE,[2],235.67 u/L
same,CREATININE,[2],0.15 mg/dL
same,GLUCOSE,[2],144.33 mg/dL
same,LACTATE DEHYDROGENASE,[2],206.67 u/L
same,LIPASE,[2],8 u/L
same,PHOSPHORUS,[2],12.53 mg/dL
same,POTASSIUM,[2],6.56 MEQ/L
same,SODIUM,[2],145.97 MEQ/L
same,TOTAL BILIRUBIN,[2],0.2 mg/dL
same,TOTAL PROTEIN,[2],5.87 G/DL
same,URIC ACID,[2],1.43 mg/dL
same,ABSOLUTE BASOPHIL,[3],0 CELLS/uL
same,ABSOLUTE EOSINOPHIL,[3],0 CELLS/uL
same,ABSOLUTE LYMPHOCYTE,[3],11402.67 CELLS/uL
same,ABSOLUTE MONOCYTE,[3],42 CELLS/uL
same,ABSOLUTE SEGMENTED NEUTROPHIL,[3],922 CELLS/uL
same,BASOPHIL,[3],0%
same,EOSINOPHIL,[3],0%
same,ERYTHROCYTE COUNT,[3],5.83 x10E6/uL
same,HEMATOCRIT,[3],36.2%
same,HEMOGLOBIN,[3],14.53 G/DL
same,LEUKOCYTE COUNT,[3],12.37 x10E3/uL
same,LYMPHOCYTE,[3],92.33%
same,MEAN CORPUSCULAR HEMOGLOBIN,[3],24.93 pg
same,MEAN CORPUSCULAR HEMOGLOBIN CONCENTRATION,[3],40.13 G/DL
same,MEAN CORPUSCULAR VOLUME,[3],62.07 fL
same,MONOCYTE,[3],0.33%
same,NEUTROPHIL,[3],7.33%
same,NUCLEATED RED BLOOD CELLS,[3],0 /100WBC
same,PLATELET COUNT,[3],1700.33 x10E3/uL
same,ALANINE AMINOTRANSFERASE,[3],65.67 u/L
same,ALBUMIN,[3],4.33 G/DL
same,ALKALINE PHOSPHATASE,[3],494.33 u/L
same,ASPARTATE AMINOTRANSFERASE,[3],82.67 u/L
same,BLOOD UREA NITROGEN,[3],12 mg/dL
same,CARBON DIOXIDE,[3],21.33 mmol/L
same,CHLORIDE,[3],102.5 MEQ/L
same,CHOLESTEROL,[3],83.67 mg/dL
same,CREATINE PHOSPHOKINASE,[3],249.33 u/L
same,CREATININE,[3],0.17 mg/dL
same,GLUCOSE,[3],162.67 mg/dL
same,LACTATE DEHYDROGENASE,[3],125.67 u/L
same,LIPASE,[3],13 u/L
same,PHOSPHORUS,[3],12.63 mg/dL
same,POTASSIUM,[3],5.48 MEQ/L
same,SODIUM,[3],143.2 MEQ/L
same,TOTAL BILIRUBIN,[3],0.17 mg/dL
same,TOTAL PROTEIN,[3],5.8 G/DL
same,URIC ACID,[3],1.93 mg/dL
same,ABSOLUTE BASOPHIL,[4],0 CELLS/uL
same,ABSOLUTE EOSINOPHIL,[4],0 CELLS/uL
same,ABSOLUTE LYMPHOCYTE,[4],22503 CELLS/uL
same,ABSOLUTE MONOCYTE,[4],323.33 CELLS/uL
same,ABSOLUTE SEGMENTED NEUTROPHIL,[4],1973.67 CELLS/uL
same,BASOPHIL,[4],0%
same,EOSINOPHIL,[4],0%
same,ERYTHROCYTE COUNT,[4],6.56 x10E6/uL
same,HEMATOCRIT,[4],39.57%
same,HEMOGLOBIN,[4],16.23 G/DL
same,LEUKOCYTE COUNT,[4],24.8 x10E3/uL
same,LYMPHOCYTE,[4],90%
same,MEAN CORPUSCULAR HEMOGLOBIN,[4],24.77 pg
same,MEAN CORPUSCULAR HEMOGLOBIN CONCENTRATION,[4],41.07 G/DL
same,MEAN CORPUSCULAR VOLUME,[4],60.37 fL
same,MONOCYTE,[4],1.33%
same,NEUTROPHIL,[4],8.67%
same,NUCLEATED RED BLOOD CELLS,[4],0 /100WBC
same,PLATELET COUNT,[4],1311.67 x10E3/uL
same,ALANINE AMINOTRANSFERASE,[4],66.67 u/L
same,ALBUMIN,[4],4.5 G/DL
same,ALKALINE PHOSPHATASE,[4],440.33 u/L
same,ASPARTATE AMINOTRANSFERASE,[4],86 u/L
same,BLOOD UREA NITROGEN,[4],19.67 mg/dL
same,CARBON DIOXIDE,[4],25 mmol/L
same,CHLORIDE,[4],102 MEQ/L
same,CHOLESTEROL,[4],90.67 mg/dL
same,CREATINE PHOSPHOKINASE,[4],343.67 u/L
same,CREATININE,[4],0.2 mg/dL
same,GLUCOSE,[4],132 mg/dL
same,LACTATE DEHYDROGENASE,[4],171.33 u/L
same,LIPASE,[4],9.33 u/L
same,PHOSPHORUS,[4],11.03 mg/dL
same,POTASSIUM,[4],6.65 MEQ/L
same,SODIUM,[4],144.3 MEQ/L
same,TOTAL BILIRUBIN,[4],0.17 mg/dL
same,TOTAL PROTEIN,[4],6.17 G/DL
same,URIC ACID,[4],1.33 mg/dL

# — ChEMBL document CHEMBL3885881, “DrugMatrix”
